Measured values as given in ChEMBL document CHEMBL2303647, “Data associated with the publication PLoS ONE, 8(3), e57888, (2013) PMID: 23505445. Compounds: GSK PKIS; Assays: NIH NCATS”.

What was measured:
[1] = biological target: Luciferin 4-monooxygenase (Photinus pyralis, UniProt P08659)
Description: GSK_PKIS: Inhibition of Firefly Luciferase (Data from PubChem: AID 652016) [NIH NCATS]

[2] = biological target: T1, Coelenterazine h 2-monooxygenase (Renilla reniformis, UniProt P27652)
T1 sequence (P27652 whole entry): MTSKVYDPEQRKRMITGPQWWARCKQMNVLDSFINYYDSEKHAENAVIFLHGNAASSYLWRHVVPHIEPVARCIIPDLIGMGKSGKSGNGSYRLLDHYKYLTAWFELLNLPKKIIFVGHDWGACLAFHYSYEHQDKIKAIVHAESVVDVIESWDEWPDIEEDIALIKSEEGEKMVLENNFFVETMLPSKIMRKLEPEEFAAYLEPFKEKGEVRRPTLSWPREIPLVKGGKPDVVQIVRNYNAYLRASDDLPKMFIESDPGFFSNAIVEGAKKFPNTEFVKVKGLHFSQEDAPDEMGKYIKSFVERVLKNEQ
Description: GSK_PKIS: Inhibition of Sea Pansy Luciferase (Data from PubChem: AID 652015) [NIH NCATS]

Luciferin 4-monooxygenase, sequence (P08659 whole entry): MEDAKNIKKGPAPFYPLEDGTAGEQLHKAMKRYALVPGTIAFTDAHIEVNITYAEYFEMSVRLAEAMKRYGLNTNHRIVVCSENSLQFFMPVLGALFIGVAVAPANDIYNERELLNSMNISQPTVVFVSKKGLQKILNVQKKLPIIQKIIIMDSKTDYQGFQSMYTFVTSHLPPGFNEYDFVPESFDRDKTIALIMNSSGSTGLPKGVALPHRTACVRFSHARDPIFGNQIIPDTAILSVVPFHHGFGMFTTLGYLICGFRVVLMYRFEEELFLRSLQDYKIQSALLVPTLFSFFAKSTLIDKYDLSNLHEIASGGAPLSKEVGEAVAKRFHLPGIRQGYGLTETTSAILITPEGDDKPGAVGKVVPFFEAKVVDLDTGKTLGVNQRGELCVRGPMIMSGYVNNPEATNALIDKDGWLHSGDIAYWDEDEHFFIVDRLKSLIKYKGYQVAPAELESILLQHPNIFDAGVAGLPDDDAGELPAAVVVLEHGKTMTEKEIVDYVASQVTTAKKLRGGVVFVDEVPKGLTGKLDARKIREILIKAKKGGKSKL

Row | SMILES | AC50 [1] | AC50 [2] | AC50 ([1]; read-out: AC50) | AC50 ([2]; read-out: AC50)
1 | CC(=O)Nc1cccc(C#Cc2cncnc2Nc2ccc(OCc3cccc(F)c3)c(Cl)c2)n1 [GW794726X] | Phenotype: Inactive; Curve_Description: None | Phenotype: Inactive; Curve_Description: None |  | 
2 | CN(C)CCOc1ccc(-c2cc(-c3ccc4c(c3)CCC4=NO)c(-c3ccncc3)o2)cc1.Cl | Phenotype: Inactive; Curve_Description: None | Phenotype: Inactive; Curve_Description: None |  | 
3 | COc1ccc2c(-c3ccnc(Nc4cccc(OC(F)(F)F)c4)n3)cnn2n1 [GW810372X] | Phenotype: Inactive; Curve_Description: None | Phenotype: Activator; Curve_Description: None |  | 
4 | CCCNc1cccc(-n2ncc3c(N/N=C/c4ccncc4)ncnc32)c1 [GW794607X] | Phenotype: Inactive; Curve_Description: None | Phenotype: Inactive; Curve_Description: None |  | 
5 | CCOc1ccc2c(-c3ccnc(Nc4cccc(C(F)(F)F)c4)n3)cnn2n1 [GW811761X] | Phenotype: Inactive; Curve_Description: None | Phenotype: Inactive; Curve_Description: None |  | 
6 | CCn1c(-c2nonc2N)nc2cncc(C(=O)NCCNC)c21 [GW876790X] | Phenotype: Inactive; Curve_Description: None | Phenotype: Inactive; Curve_Description: None |  | 
7 | O=C(Nc1n[nH]c2nc(-c3ccc(O)cc3)c(Br)cc12)C1CC1 |  | Phenotype: Inactive; Curve_Description: None | 20.6 µM | 
8 | CNC(=O)Oc1cc(C)c(/C=C/c2cncc(C(=O)NC)c2)c(C)c1 [GW432441X] |  | Phenotype: Inactive; Curve_Description: None | 29.1 µM | 
9 | O=C1Nc2ccc(C(=O)c3ccco3)cc2C1=Cc1cc(Cl)c(O)c(Cl)c1 [GW406108X] |  |  | 18.3 µM | 16.3 µM
10 | COc1ccccc1-c1cc(/C=C2\C(=O)Nc3ncc(Br)cc32)cc(Br)c1O [GW442130X] |  |  | 41.1 µM | 8.19 µM
11 | Cl.Fc1ccc(-c2nc3n(c2-c2ccncc2)CCS3)cc1 | Phenotype: Inactive; Curve_Description: None | Phenotype: Inactive; Curve_Description: None |  | 
12 | NS(=O)(=O)c1ccc(N/C=C2\C(=O)Nc3ccc4ncsc4c32)cc1 [GW297361X] | Phenotype: Inactive; Curve_Description: None |  |  | 32.6 µM
13 | O=C1NC(=O)C(N2CCc3ccccc32)=C1c1ccc(Cl)cc1 |  |  | 6.51 µM | 20.6 µM
14 | Cc1ccc(Nc2ccnc(Nc3cccc(C(N)=O)c3)n2)cc1O.Cl [GW575808A] |  | Phenotype: Inactive; Curve_Description: None | 1.46 µM | 
15 | c1ccc(Nc2ncc(-c3ccccc3)o2)cc1 [GW549390X] |  | Phenotype: Inactive; Curve_Description: None | 0.259 µM | 
16 | N#Cc1c(NC(=O)c2ccccc2F)sc2c1CCCC2 [GW572738X] |  | Phenotype: Inactive; Curve_Description: None | 0.819 µM | 
17 | FC(F)(F)c1cccc(Nc2nccc(-c3cnn4nc(-c5ccccc5)ccc34)n2)c1 [GW819077X] | Phenotype: Inactive; Curve_Description: None | Phenotype: Inactive; Curve_Description: None |  | 
18 | CCN1CCC(CC(=O)Nc2n[nH]c3nc(-c4cccs4)c(Br)cc23)CC1.O=C(O)C(O)C(O)C(=O)O | Phenotype: Inactive; Curve_Description: None |  |  | 29.1 µM
19 | CCCN1CCC=C(c2ccc(Nc3nc(Nc4ccccc4C(N)=O)c4cc[nH]c4n3)c(C)c2)C1 [GSK-994854A] | Phenotype: Inactive; Curve_Description: None |  |  | 46.1 µM
20 | CCCN(CCS(C)(=O)=O)Cc1ccc(-c2ccc3ncnc(Nc4ccc(OCc5cccc(F)c5)c(Cl)c4)c3c2)o1.Cl [GW621823A] |  | Phenotype: Inactive; Curve_Description: None | 20.6 µM | 
21 | CCc1cccc(CC)c1/C=C/c1cncc(C(=O)NC)c1 [GW450241X] |  | Phenotype: Inactive; Curve_Description: None | 36.6 µM | 
22 | NC(=O)Cc1ccccc1Oc1nccc(-c2c(-c3ccc(F)cc3)ncn2C2CCNCC2)n1 | Phenotype: Inactive; Curve_Description: None | Phenotype: Inactive; Curve_Description: None |  | 
23 | Cc1cc(-c2ccco2)cc(C)c1/C=C/c1cncc(-c2nn[nH]n2)c1.Cl [GW458344A] |  | Phenotype: Inactive; Curve_Description: None | 20.6 µM | 
24 | COc1ccc2cc(-c3c(-c4ccncc4)nc(-c4ccc([S+](C)[O-])cc4)n3C)ccc2c1 (configuration not stated) |  | Phenotype: Inactive; Curve_Description: None | 36.6 µM | 
25 | NC(=O)c1sc(-n2cnc3ccccc32)cc1OCc1ccccc1Br [GSK-1023156A] | Phenotype: Inactive; Curve_Description: None |  |  | 25.9 µM
26 | CCN1CCC(C(=O)Nc2n[nH]c3nnc(-c4cccc(F)c4F)cc23)CC1.Cl | Phenotype: Inactive; Curve_Description: None | Phenotype: Inactive; Curve_Description: None |  | 

Row | SMILES | AC50 [1] | AC50 [2] | AC50 ([1]; read-out: AC50) | AC50 ([2]; read-out: AC50)
27 | CCN(CC)Cc1ccc(Nc2nccc(-c3cnn4ncccc34)n2)cc1 [GW780056X] | Phenotype: Inactive; Curve_Description: None |  |  | 20.6 µM
28 | COc1ccc2ncnc(Nc3ccc(OCc4ccccc4)cc3)c2c1.Cl | Phenotype: Inactive; Curve_Description: None |  |  | 0.0007 µM
29 | CCn1c(-c2nonc2N)nc2c(C#CC(C)(C)O)ncc(OC3CCNCC3)c21.O=C(O)C(F)(F)F [GSK-619487A] | Phenotype: Inactive; Curve_Description: None | Phenotype: Inactive; Curve_Description: None |  | 
30 | O=C(Nc1n[nH]c2nc(-c3ccco3)c(Br)cc12)C1CC1 |  | Phenotype: Inactive; Curve_Description: None | 20.6 µM | 
31 | COc1cc2ncn(-c3cc(OCc4ccccc4C(F)(F)F)c(C(C)=O)s3)c2cc1OC [GSK-1030059A] | Phenotype: Inactive; Curve_Description: None | Phenotype: Inactive; Curve_Description: None |  | 
32 | Cc1ccc2c(-c3ccnc(Nc4ccccc4)n3)c(-c3ccc(F)cc3)nn2n1 [GW833373X] | Phenotype: Inactive; Curve_Description: None | Phenotype: Inactive; Curve_Description: None |  | 
33 | Nc1nccc(-c2c(-c3ccc(F)cc3)nn3cc(C(F)(F)F)ccc23)n1 [GW568326X] | Phenotype: Inactive; Curve_Description: None | Phenotype: Inactive; Curve_Description: None |  | 
34 | CN1CCN(CCCNc2nc3ccc(Oc4ccc(NC(=O)Nc5cc(C(F)(F)F)ccc5F)cc4)cc3[nH]2)CC1.Cl [GW700494A] | Phenotype: Inactive; Curve_Description: None |  |  | 23.1 µM
35 | Nc1nc(-c2cccc(Cl)c2)c(-c2ccc3ncccc3n2)s1 [GW780159X] | Phenotype: Inactive; Curve_Description: None | Phenotype: Inactive; Curve_Description: None |  | 
36 | O=C(O[C@H]1CN[C@H](C#Cc2cc3ncnc(Nc4ccc(OCc5cccc(F)c5)c(Cl)c4)c3s2)C1)N1CCOCC1 [GW869810X] |  | Phenotype: Inactive; Curve_Description: None | 20.6 µM | 
37 | CN1CCC(C(=O)Nc2n[nH]c3nc(-c4ccc(O)cc4)c(Br)cc23)CC1 | Phenotype: Inactive; Curve_Description: None |  |  | 32.6 µM
38 | Nc1nccc(-c2c(-c3ccc(F)cc3)ncn2CCCN2CCOCC2)n1 | Phenotype: Inactive; Curve_Description: None | Phenotype: Inactive; Curve_Description: None |  | 
39 | CN(c1ccc(NC(=O)Nc2ccc(OC(F)(F)F)cc2)cc1)c1ccnc(Nc2cccc(S(N)(=O)=O)c2)n1 [GW806742X] |  | Phenotype: Inactive; Curve_Description: None | 18.3 µM | 
40 | O=C1Nc2ccccc2/C1=C/Nc1ccc2[nH]c(=O)[nH]c2c1 [GW284408X] |  | Phenotype: Inactive; Curve_Description: None | 4.11 µM | 
41 | CCn1cc(-c2ccnc3[nH]ccc23)c(-c2cccc(NC(=O)Nc3ccc(OCc4ccccc4)cc3)c2)n1 [GSK-718429A] | Phenotype: Inactive; Curve_Description: None | Phenotype: Inactive; Curve_Description: None |  | 
42 | COc1cccc(-n2ncc3c(N/N=C/c4ccc(F)cc4)ncnc32)c1 [GW817396X] |  |  | 32.6 µM | 0.0005 µM
43 | CN1CCC(n2cnc(-c3ccc(F)cc3)c2-c2ccnc(Nc3ccccc3)n2)CC1 | Phenotype: Inactive; Curve_Description: None | Phenotype: Inactive; Curve_Description: None |  | 
44 | CCn1c(-c2nonc2N)nc2c(C#CC(C)(C)O)nc(O[C@@H](CN)c3ccccc3)cc21.O=C(O)C(F)(F)F [GSK-1007102B] | Phenotype: Inactive; Curve_Description: None |  |  | 29.1 µM
45 | CC(=O)NCc1cccc(C#Cc2cncnc2Nc2ccc(OCc3cccc(F)c3)c(Cl)c2)c1 [GW807930X] | Phenotype: Activator; Curve_Description: None | Phenotype: Inactive; Curve_Description: None |  | 
46 | O=C(Nc1n[nH]c2nc(-c3ccco3)ccc12)C1CC1 | Phenotype: Inactive; Curve_Description: None | Phenotype: Inactive; Curve_Description: None |  | 
47 | c1cnn2ncc(-c3ccnc(Nc4ccc5c(c4)OCCO5)n3)c2c1 [GW806290X] |  | Phenotype: Inactive; Curve_Description: None | 2.91 µM | 
48 | O=C1Nc2ccc(I)cc2C1=Cc1cc(Br)c(O)c(Br)c1 [GW305074X] | Phenotype: Inactive; Curve_Description: None |  |  | 20.6 µM
49 | NC(=O)c1ccc(Oc2nccc(-c3c(-c4ccc(F)cc4)ncn3C3CCNCC3)n2)cc1 |  | Phenotype: Inactive; Curve_Description: None | 29.1 µM | 
50 | COc1cc2c(cc1Nc1nc(Nc3ccsc3C(N)=O)c3cc[nH]c3n1)N(C(=O)CN(C)C)CCC2(C)C [GSK-2163632A] | Phenotype: Inactive; Curve_Description: None | Phenotype: Inactive; Curve_Description: None |  | 
51 | Cc1cc(O)cc(C)c1/C=C/c1cncc(C(N)=O)c1 [GW435821X] | Phenotype: Inactive; Curve_Description: None | Phenotype: Inactive; Curve_Description: None |  | 
